In patent US11376306B2, “Peptides and uses therefor as antiviral agents” (priority 2017, dated 2022) one finds IC50, EC50 and CC50 data, which are given here for five molecules.

In general, IC50 refers to the concentration at which inhibition is half-maximal. A low value points to higher potency. Broadly, the EC50 is the concentration needed to bring the measured effect to its halfway point. A high value points to a need for much substance.

Each structure is given as a SMILES string. Positions of bridges follow the written chain, without caps; N, C: chain ends. Non-standard residues stand in square brackets, D forms with d. Residues, ends and D or L forms follow the SMILES beside them.

One data set deals with HIV-1 92UG029. The class given is cell-based, Human Immunodeficiency Virus. The procedure: FIG. 7: Effect of PSP VI A1 against HIV-1 92UG029 in vitro. The ability of the peptide to inhibit the replication of HIV was determined by reverse transcriptase assay on PBMCs. Experiments were carried out in the presence of DMSO or increasing concentration of peptide. Results are presented as mean value of triplicate measurements.
Anti-HIV Efficacy Evaluation in Fresh Human PBMCs: PBMCs were infected with various concentrations of peptide treated viruses and incubated at 37° C., 5% CO2 for seven days. After this incubation, the cells were centrifuged down and the supernatants were collected for reverse transcriptase activity (RT) assay. The cytotoxic effects of the compounds were studied with the addition of MTS to the cells following the removal of the supernatant. Data analysis for IC50 and TC50 was done by the CRO with their in house computer program.
Reverse transcriptase activity assay: Reverse transcriptase (RT) assay was carried out in a microtiter plate. Briefly Tritiated thymidine triphosphate (3H-TTP, 80 Ci/mmol, NEN;(GE Healthcare) was prepared as a stock solution by combining 150 μL poly rA (20 mg/mL) with 0.5 mL oligo dT (20 units/mL) and 5.35 mL sterile dH2O. Fresh RT reaction buffer was prepared with 125 μL 1.0 M EGTA, 125 μL dH2O, 125 μL 20% Triton X100, 50 μL 1.0 M Tris (pH 7.4), 50 μL 1.0 M DTT, and 40 μL 1.0 M MgCl2. The final reaction mixture was obtained by mixing 1 part of 3H-TTP, 4 parts dH2O, 2.5 parts poly rA:oligo dT stock and 2.5 parts reaction buffer. Ten microliters of this reaction mixture was added to the microtiter plate and 15 μL of virus containing supernatant is added and mixed. Then the plate was incubated at 37° C. for 60 minutes. After the incubation, the reaction volume was spotted onto DE81 filter-mats (Wallac), washed extensively with 5% sodium phosphate buffer or 2× SSC (Life Technologies), then in distilled water which was followed by 70% ethanol wash and air drying. Standard liquid scintillation techniques were used to quantify the incorporated radioactivity (counts per minute, CPM).

A further data set has as its system CMV AD169. Briefly: Cytopathic effect (CPE) assay, CMV AD169 on HFFF-2 cells. As to conditions: CPE assay on HFFF-2 cells, MOI 0.006, 14 days. The data set is classed as cell-based, Cytomegalovirus. The procedure:
FIG. 5: Effect of PSP VI A1 against CMV in vitro. The ability of the peptide to inhibit the replication of CMV was determined by CPE assay on HFFF-2 cells. Experiments were done in triplicates and carried out in the presence of DMSO or increasing concentration of test compound.
(§1) Cytopathic effect (CPE) assay for HSV, RSV and CMV: Appropriate cells were seeded into 96 well plates and incubated overnight until they reached ˜70% confluency. Viruses were treated with various concentrations of peptide or vehicle for 90 minutes at 4° C. and added on to the confluent monolayer of cells for the rest of the assay. At the end of the incubation period, the viability of the cells was determined by adding MTT reagent and incubating the plates at 37° C. for 2-4 hours at 5% CO2. After the incubation, 100% isopropanol was added to solubilise the formazan crystals and the absorbance was recorded at 540 nm subtracting the background at 620 nm.
(§2) Pauwels formula (shown below) was used to calculate the percent cell protection achieved by the positive control or test compounds.
(§3) Percent cell protection=([ODt]virus−[ODc]virus/[ODc]mock−[ODc]virus)×100
(§4) These percentages were used to determine the ECso which were calculated by non-linear regression analysis with IDBS XLFit Excel Add-in Version 5.4.0.8
In general terms: Cytopathic effects are the visible damage that an infection or toxin causes in cultured cells.

For the next data set, the system named is HSV-2. Briefly: Cytopathic effect (CPE) assay, HSV-2 on Vero cells. As to conditions: MOI 0.02, 4 days. The data set is classed as cell-based, Herpes Simplex Virus. The procedure:
FIG. 3: Effect of PSP VI A1 against HSV-2 in vitro. The ability of the peptide to inhibit the replication of HSV was determined by CPE assay on Vero cells. Experiments were done in triplicates and carried out in the presence of DMSO or increasing concentration of test compound.
as §1, §2, §3, §4

In another data set the test system is RSV A2. The data set is described as follows: Cytopathic effect (CPE) assay, RSV A2 on Hep-2 cells. The data set is classed as cell-based, Respiratory syncytial virus. The note with it: CPE assay on Hep-2 cells, MOI 0.02, 5 days. The procedure:
FIG. 1: Effect of H-RRKKcwwftfiac-OH (PSP VI A1) against RSV A2 in vitro. The ability of the peptide to inhibit the replication of RSV A2 was determined by CPE assay on Hep-2 cells. Experiments were done in triplicates and carried out in the presence of DMSO or increasing concentration of test compound.
as §1, §2, §3, §4

A short description of data set [1]: Cytotoxicity Assay 2 (CellTiter 96 AQueous One) on A549 cells. The data set is classed as cell-based. The note with it: human, 0.1-100 μM, no significant toxicity, read-out: CE50 (Cytotoxic Effect 50). How it is done:
(§5) Cytotoxicity Assay 2: MDCK cells or A549 cells (˜5000 cells/well) are grown overnight on 96 well plates. The media is replaced by serially diluted peptides and incubated again for 24/48 h. The culture medium is removed and 20 μl of CellTiter 96® AQueous One Solution […] (Promega, Wis., USA) is added and incubated at 37° C. for 2 h. The optical density is measured at 490 nm in an microplate reader (iMARK, BioRad, USA).
(§6) Cytotoxic effects of anti-viral peptides on MDCK cells or A549 cells: The cytotoxic effects of anti-viral peptides are shown in FIG. 12 and FIG. 13 which are assessed as explained in Example 1. Briefly, the MDCK cells/A549 cells are treated with either 0 μM peptide (Mock) or increasing concentrations (i.e., 0.1 μM, 0.3 μM, 1 μM, 3 μM, 10 μM, 30 μM and 100 μM) of PSP V A19 and PSP VI A1 and the cell death is determined by 48 hours post infection by a cytotoxicity assay with CellTiter 96® AQueous One Solution cell proliferation assay kit (Promega, USA) as explained by manufacturer. The results are normalized to the mock treated cells.

The nature of data set [2]: Cytotoxicity Assay 2 (CellTiter 96 AQueous One) on MDCK cells. As to conditions: dog, 0.1-100 μM, no significant toxicity, read-out: CE50 (Cytotoxic Effect 50). The class given is cell-based. How it is done: as §5, §6

For the molecule `CC[C@@H](C)[C@@H](NC(=O)[C@@H](Cc1ccccc1)NC(=O)[C@H](NC(=O)[C@@H](Cc1ccccc1)NC(=O)[C@@H](Cc1c[nH]c2ccccc12)NC(=O)[C@H](NC(=O)[C@H](CCCCN)NC(=O)[C@H](CCCCN)NC(=O)[C@H](CCCNC(=N)N)NC(=O)[C@@H](N)CCCNC(=N)N)[C@H](C)O)[C@H](C)O)C(=O)N[C@H](CC(N)=O)C(=O)O` [PSP IV A17-LS, H-RRKKtwftfin-OH] (H-RRKK[dT][dW][dF][dT][dF][dI][dN]-OH), half-maximal inhibition in the data set with HIV-1 92UG029 (IC50) required 79.1 µM.
With `CC[C@@H](C)[C@H]1NC(=O)[C@@H](Cc2ccccc2)NC(=O)[C@@H]([C@H](C)O)NC(=O)[C@@H](Cc2ccccc2)NC(=O)[C@@H](Cc2c[nH]c3ccccc23)NC(=O)[C@@H]([C@H](C)O)NC(=O)[C@H](NC(=O)[C@H](CCCCN)NC(=O)[C@H](CCCCN)NC(=O)[C@H](CCCNC(=N)N)NC(=O)[C@@H](N)CCCNC(=N)N)CSSC[C@H](C(=O)O)NC(=O)[C@@H](CC(N)=O)NC1=O` [PSP IV A17, H-RRKKctwftfinc-OH] (H-RRKK[dC][dT][dW][dF][dT][dF][dI][dN][dC]-OH; disulfide 5-13), the results for the EC50 in the data set with CMV AD169, in the data set with HSV-2 and in the data set with RSV A2 were 18.9 µM, approximately 30 µM and 12.6 µM, respectively.
In the case of `CC[C@@H](C)[C@H]1NC(=O)[C@@H](Cc2ccccc2)NC(=O)[C@@H]([C@H](C)O)NC(=O)[C@@H](Cc2ccccc2)NC(=O)[C@@H](Cc2c[nH]c3ccccc23)NC(=O)[C@@H](Cc2c[nH]c3ccccc23)NC(=O)[C@H](N)CSSC[C@H](C(=O)O)NC(=O)[C@@H](CC(N)=O)NC1=O` [PSP V A19-C, H-cwwftfinc-OH] (H-[dC][dW][dW][dF][dT][dF][dI][dN][dC]-OH; disulfide 1-9), the IC50 in the data set on HIV-1 92UG029 stood at 66.5 µM.
As for `CC[C@@H](C)[C@H]1NC(=O)[C@@H](Cc2ccccc2)NC(=O)[C@@H]([C@H](C)O)NC(=O)[C@@H](Cc2ccccc2)NC(=O)[C@@H](Cc2c[nH]c3ccccc23)NC(=O)[C@@H](Cc2c[nH]c3ccccc23)NC(=O)[C@H](NC(=O)[C@H](CCCCN)NC(=O)[C@H](CCCCN)NC(=O)[C@H](CCCNC(=N)N)NC(=O)[C@@H](N)CCCNC(=N)N)CSSC[C@H](C(=O)O)NC(=O)[C@@H](CC(N)=O)NC1=O` [PSP V A19, H-RRKKcwwftfinc-OH] (H-RRKK[dC][dW][dW][dF][dT][dF][dI][dN][dC]-OH; disulfide 5-13), the CC50 at 48 h in data set [1] and in data set [2] was more than 30 µM in each case.
In the case of `CC[C@@H](C)[C@H]1NC(=O)[C@@H](Cc2ccccc2)NC(=O)[C@@H]([C@H](C)O)NC(=O)[C@@H](Cc2ccccc2)NC(=O)[C@@H](Cc2c[nH]c3ccccc23)NC(=O)[C@@H](Cc2c[nH]c3ccccc23)NC(=O)[C@H](NC(=O)[C@H](CCCCN)NC(=O)[C@H](CCCCN)NC(=O)[C@H](CCCNC(=N)N)NC(=O)[C@@H](N)CCCNC(=N)N)CSSC[C@H](C(=O)O)NC(=O)[C@@H](C)NC1=O` [PSP VI A1, H-RRKKcwwftfiac-OH] (H-RRKK[dC][dW][dW][dF][dT][dF][dI][dA][dC]-OH; disulfide 5-13), the CC50 at 48 h in data set [1] and in data set [2] was more than 30 µM throughout. Besides, the figures for the EC50 in the data set with CMV AD169, with HSV-2 and in the data set with RSV A2 were 13.8 µM, approximately 30 µM and 17.8 µM, respectively. The same molecule yielded a half-maximal inhibitory concentration (IC50) in the data set on HIV-1 92UG029 of 60.8 µM.
